In ChEMBL document CHEMBL1208707, “T-type calcium channel blockers: spiro-piperidine azetidines and azetidinones-optimization, design and synthesis” (Bioorg Med Chem Lett, 2010):
pIC50: −log10 of the molar value. Active and inactive are the calls of the source. No cut-off for these calls is given here.

Legend:
[1] = molecular target: T1, Voltage-dependent T-type calcium channel subunit alpha-1H (Homo sapiens, UniProt O95180); assay: Inhibition of human CaV3.2 expressed in HEK293 cells at -100 mV membrane potential by Ionworks HT assay; type: cell-based
[2] = (§1) Protein binding in rat plasma; type: ADME, cell-free; conditions: read-out: PPB (converted)
[3] = molecular target: T1, Voltage-dependent T-type calcium channel subunit alpha-1H; assay: Inhibition of human CaV3.2 expressed in HEK293 cells at -100 mV membrane potential by whole cell path clamp method; type: cell-based
Plasma = assay: as §1; type: ADME, cell-free
[4] = molecular target: Transient receptor potential cation channel subfamily V member 1 (Homo sapiens) (UniProt Q8NER1); assay: Inhibition of TRPV1 expressed in HEK293 assessed as capsaicin activation cells at 3.3 ug/mL by FLIPR assay; type: cell-based
Rattus norvegicus [5] = assay: In vivo inhibition of TRPV1 activation in SNL rat at 10 mg/kg, po; type: functional, organism-based; parameters: dose 10 mg/kg
Rattus norvegicus [6] = assay: Plasma concentration in SNL rat at 100 mg/kg, po; type: ADME, organism-based; parameters: dose 100 mg/kg, route oral; conditions: in vivo
Homo sapiens = species on record: Homo sapiens; assay: Protein binding in human plasma; conditions: read-out: PPB (converted)
Cytochrome P450 3A4 = Cytochrome P450 3A4 (Homo sapiens, UniProt P08684); assay: Inhibition of CYP3A4 coincubated with compound; type: ADME; conditions: read-out: INH
Cytochrome P450 2D6 [7] = molecular target: T2, Cytochrome P450 2D6 (Homo sapiens, UniProt P10635); assay: Inhibition of CYP2D6 coincubated with compound; type: ADME
Cytochrome P450 2C9 [8] = molecular target: T3, Cytochrome P450 2C9 (Homo sapiens, UniProt P11712); assay: Inhibition of CYP2C9 coincubated with compound; type: ADME; conditions: read-out: INH
Cytochrome P450 2D6 [9] = molecular target: T2, Cytochrome P450 2D6; assay: Inhibition of CYP2D6 preincubated with compound; type: ADME
Cytochrome P450 2C9 [10] = molecular target: T3, Cytochrome P450 2C9; assay: Inhibition of CYP2C9 preincubated with compound; type: ADME; conditions: read-out: INH
[11] = Permeability across human Caco-2 cells; type: ADME, cell-based; conditions: read-out: permeability
Rattus norvegicus [12] = assay: In vivo inhibition of TRPV1 activation in SNL rat at 50 mg/kg, po; type: functional, organism-based; parameters: dose 50 mg/kg
Rattus norvegicus [13] = assay: In vivo inhibition of TRPV1 activation in SNL rat at 30 mg/kg, po; type: functional, organism-based; parameters: dose 30 mg/kg
Rattus norvegicus [14] = assay: Plasma concentration in SNL rat at 10 mg/kg, po; type: ADME, organism-based; parameters: dose 10 mg/kg, route oral; conditions: in vivo
[15] = AUC in po dosed rat; type: ADME, organism-based; conditions: plasma
Rattus norvegicus [16] = assay: In vivo inhibition of TRPV1 activation in SNL rat at 30 and 60 mg/kg, po; type: functional, organism-based; parameters: dose 60 mg/kg
Rattus norvegicus [17] = assay: In vivo inhibition of TRPV1 activation in SNL rat at 100 mg/kg, po; type: functional, organism-based; parameters: dose 100 mg/kg

T2 sequence (P10635 whole entry): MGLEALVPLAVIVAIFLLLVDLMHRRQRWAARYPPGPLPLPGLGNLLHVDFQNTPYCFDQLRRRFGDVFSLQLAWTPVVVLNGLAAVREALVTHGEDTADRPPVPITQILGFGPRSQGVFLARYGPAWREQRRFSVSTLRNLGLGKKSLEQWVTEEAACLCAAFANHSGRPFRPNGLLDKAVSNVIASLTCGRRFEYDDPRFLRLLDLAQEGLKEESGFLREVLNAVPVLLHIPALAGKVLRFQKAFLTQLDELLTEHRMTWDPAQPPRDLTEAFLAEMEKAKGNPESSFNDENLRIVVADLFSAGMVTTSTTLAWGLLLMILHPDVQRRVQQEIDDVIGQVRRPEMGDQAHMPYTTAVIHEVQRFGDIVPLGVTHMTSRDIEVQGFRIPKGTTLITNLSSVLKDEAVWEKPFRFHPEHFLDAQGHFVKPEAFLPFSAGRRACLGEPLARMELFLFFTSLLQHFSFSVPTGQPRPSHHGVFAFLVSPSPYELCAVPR
Cytochrome P450 3A4, sequence (P08684 whole entry): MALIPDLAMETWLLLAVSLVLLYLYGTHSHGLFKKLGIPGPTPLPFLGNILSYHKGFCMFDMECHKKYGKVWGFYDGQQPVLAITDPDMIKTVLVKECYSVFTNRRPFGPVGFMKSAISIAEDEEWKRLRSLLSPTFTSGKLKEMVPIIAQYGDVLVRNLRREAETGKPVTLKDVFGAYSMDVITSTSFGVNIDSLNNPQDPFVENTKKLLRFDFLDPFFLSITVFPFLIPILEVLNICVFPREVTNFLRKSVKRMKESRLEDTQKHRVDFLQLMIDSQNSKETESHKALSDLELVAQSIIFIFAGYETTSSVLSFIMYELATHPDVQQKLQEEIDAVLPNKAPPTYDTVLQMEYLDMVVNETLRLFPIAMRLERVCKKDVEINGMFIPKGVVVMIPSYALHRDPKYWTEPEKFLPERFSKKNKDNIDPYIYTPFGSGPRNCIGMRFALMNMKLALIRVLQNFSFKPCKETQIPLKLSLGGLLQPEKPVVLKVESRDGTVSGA
Transient receptor potential cation channel subfamily V member 1 (Homo sapiens), sequence (Q8NER1 whole entry): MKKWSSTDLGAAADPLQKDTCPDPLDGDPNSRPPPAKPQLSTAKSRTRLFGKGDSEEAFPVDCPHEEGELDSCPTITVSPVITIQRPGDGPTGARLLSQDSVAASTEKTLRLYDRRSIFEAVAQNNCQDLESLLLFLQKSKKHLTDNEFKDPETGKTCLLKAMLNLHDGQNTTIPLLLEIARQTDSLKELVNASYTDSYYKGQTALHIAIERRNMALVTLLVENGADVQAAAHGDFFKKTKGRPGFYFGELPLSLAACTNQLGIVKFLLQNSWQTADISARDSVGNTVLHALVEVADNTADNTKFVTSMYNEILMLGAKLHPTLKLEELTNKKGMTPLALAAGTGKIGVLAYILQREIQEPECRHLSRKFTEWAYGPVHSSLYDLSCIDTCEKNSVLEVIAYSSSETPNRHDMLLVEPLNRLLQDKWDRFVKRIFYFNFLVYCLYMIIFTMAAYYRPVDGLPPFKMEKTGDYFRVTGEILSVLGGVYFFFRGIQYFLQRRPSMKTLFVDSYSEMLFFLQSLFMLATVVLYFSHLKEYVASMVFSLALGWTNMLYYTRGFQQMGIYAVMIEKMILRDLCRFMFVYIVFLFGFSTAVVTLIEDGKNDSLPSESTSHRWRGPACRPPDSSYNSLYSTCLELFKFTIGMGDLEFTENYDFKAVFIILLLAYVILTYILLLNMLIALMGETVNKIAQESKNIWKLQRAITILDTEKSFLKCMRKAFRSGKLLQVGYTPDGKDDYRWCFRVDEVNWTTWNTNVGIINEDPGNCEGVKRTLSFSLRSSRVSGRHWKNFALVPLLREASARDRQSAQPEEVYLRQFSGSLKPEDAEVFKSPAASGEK
T1 sequence (O95180 whole entry): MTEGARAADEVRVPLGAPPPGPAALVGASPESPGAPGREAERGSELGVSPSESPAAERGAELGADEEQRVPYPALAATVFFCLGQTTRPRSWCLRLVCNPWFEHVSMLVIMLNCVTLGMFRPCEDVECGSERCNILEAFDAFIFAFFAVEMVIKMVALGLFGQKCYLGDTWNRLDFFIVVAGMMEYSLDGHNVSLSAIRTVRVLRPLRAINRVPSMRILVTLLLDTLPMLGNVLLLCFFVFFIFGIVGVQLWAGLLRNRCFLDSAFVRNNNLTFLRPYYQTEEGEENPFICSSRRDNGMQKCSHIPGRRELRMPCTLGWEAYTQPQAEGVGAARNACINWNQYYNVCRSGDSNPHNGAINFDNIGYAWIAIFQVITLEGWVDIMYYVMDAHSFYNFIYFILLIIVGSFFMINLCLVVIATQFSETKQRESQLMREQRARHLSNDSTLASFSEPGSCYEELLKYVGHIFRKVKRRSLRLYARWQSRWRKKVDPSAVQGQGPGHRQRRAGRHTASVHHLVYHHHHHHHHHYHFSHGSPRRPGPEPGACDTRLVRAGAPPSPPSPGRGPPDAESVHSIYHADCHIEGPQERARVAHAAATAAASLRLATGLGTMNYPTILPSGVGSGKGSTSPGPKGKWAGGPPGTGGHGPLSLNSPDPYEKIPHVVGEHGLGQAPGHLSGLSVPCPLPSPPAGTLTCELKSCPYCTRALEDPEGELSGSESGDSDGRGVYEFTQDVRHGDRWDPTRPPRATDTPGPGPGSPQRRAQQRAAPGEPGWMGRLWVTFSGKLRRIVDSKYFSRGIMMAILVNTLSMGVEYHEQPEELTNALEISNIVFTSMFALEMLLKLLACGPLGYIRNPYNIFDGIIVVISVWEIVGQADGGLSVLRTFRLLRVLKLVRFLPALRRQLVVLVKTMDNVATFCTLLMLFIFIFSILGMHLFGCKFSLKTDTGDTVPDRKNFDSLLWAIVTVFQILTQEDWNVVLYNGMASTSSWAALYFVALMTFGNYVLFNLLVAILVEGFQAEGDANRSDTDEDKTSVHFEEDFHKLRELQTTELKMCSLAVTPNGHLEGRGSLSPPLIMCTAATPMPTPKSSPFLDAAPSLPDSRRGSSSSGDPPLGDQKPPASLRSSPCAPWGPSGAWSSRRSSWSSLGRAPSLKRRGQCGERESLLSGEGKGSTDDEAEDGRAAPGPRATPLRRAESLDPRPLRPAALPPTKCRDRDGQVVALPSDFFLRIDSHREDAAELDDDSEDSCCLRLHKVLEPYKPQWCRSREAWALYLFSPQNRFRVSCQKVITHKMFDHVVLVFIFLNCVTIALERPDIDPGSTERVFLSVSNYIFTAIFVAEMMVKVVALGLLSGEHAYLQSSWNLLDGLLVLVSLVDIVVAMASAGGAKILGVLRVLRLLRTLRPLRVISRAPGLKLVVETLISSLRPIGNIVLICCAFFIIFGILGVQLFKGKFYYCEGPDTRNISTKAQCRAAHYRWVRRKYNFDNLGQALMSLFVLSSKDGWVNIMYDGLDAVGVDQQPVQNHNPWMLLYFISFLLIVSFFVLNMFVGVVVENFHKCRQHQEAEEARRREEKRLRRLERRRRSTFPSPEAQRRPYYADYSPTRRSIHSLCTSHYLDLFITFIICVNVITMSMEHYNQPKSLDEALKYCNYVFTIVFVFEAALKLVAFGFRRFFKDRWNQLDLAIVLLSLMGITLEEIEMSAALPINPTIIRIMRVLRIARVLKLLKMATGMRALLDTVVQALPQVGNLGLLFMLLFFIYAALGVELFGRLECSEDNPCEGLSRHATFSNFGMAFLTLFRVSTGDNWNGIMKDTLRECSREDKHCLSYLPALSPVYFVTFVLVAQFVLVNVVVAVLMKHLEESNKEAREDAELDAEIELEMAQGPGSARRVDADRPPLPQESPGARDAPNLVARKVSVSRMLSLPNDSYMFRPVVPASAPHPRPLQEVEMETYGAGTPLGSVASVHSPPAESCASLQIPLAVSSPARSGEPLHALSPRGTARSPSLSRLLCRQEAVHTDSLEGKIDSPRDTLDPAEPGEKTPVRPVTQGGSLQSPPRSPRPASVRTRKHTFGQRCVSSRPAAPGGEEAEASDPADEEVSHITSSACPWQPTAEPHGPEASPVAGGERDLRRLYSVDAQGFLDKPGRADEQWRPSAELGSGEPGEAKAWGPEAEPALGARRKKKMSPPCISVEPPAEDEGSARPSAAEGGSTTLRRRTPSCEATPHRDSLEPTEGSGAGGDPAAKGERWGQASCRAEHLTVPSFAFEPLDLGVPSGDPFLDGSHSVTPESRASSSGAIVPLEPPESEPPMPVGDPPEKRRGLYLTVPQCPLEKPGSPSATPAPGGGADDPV
T3 sequence (P11712 whole entry): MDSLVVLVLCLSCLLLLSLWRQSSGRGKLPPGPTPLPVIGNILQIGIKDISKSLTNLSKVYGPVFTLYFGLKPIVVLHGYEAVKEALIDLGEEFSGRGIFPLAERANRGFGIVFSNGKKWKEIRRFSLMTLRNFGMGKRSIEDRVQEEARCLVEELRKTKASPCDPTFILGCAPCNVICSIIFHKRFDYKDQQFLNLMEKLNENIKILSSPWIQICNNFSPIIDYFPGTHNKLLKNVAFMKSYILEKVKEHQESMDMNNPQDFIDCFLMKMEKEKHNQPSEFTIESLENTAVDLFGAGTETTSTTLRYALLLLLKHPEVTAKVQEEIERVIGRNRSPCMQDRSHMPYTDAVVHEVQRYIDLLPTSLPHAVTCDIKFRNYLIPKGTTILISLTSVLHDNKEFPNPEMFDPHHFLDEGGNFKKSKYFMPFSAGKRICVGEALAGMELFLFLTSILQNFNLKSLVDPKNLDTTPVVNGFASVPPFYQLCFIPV

O=C(Nc1ccc(F)c(F)c1)N1CCC2(CC1)C(=O)N(c1ccc(F)c(Cl)c1)C2c1ccccn1 (stereo in doubt; 40a)
pIC50 [1]: 7.39
fraction unbound [2]: 0.004
pIC50 [3]: 4.75

O=C(Nc1cc(F)cc(F)c1)N1CCC2(CC1)C(=O)N(c1cccc(Cl)c1)C2c1ccccn1 (stereo in doubt; 44b) [listing 1 of 2 here]
pIC50 [1]: 6.70
PPB (Plasma): 99.5%

O=C1N(c2ccc(F)c(Cl)c2)C(c2ccccn2)C12CCN(c1nc3cc(F)c(C(F)(F)F)cc3[nH]1)CC2 (stereo in doubt; 52a) [listing 1 of 2 here]
inhibition [4]: 92%
inhibition (Rattus norvegicus [5]): inactive

O=C(Nc1cc(F)cc(F)c1)N1CCC2(CC1)C(=O)N(c1ccc(F)c(Cl)c1)C2c1ccccn1 (stereo in doubt; 39a) [listing 1 of 2 here]
pIC50 [1]: 8.40
fraction unbound [2]: 0.004
pIC50 [3]: 7.38
concentration (Rattus norvegicus [6]): 3.4 µM
fraction unbound (Homo sapiens): 0.001

CC[C@H](C)[C@H](NC(=O)N1CCC2(CC1)CN(C(C)C)C2c1ccc(Cl)cc1)C(=O)OC (stereo in doubt; 2)
pIC50 [1]: 6.98
pIC50 (Cytochrome P450 3A4): < 4.52
INH (Cytochrome P450 2D6 [7]): 0.9 µM
pIC50 (Cytochrome P450 2C9 [8]): < 4.52
INH (Cytochrome P450 2D6 [9]): 8.1 µM
pIC50 (Cytochrome P450 2C9 [10]): < 4.52
Papp [11]: 13.4 ×10⁻⁶ cm/s
pIC50 [3]: 6.91

O=C(Nc1cc(F)cc(F)c1)N1CCC2(CC1)C(=O)N(c1ccc(F)c(Cl)c1)C2c1ccccn1 (stereo in doubt; 39b)
inhibition (Rattus norvegicus [5]): inactive
inhibition (Rattus norvegicus [12]): inactive

O=C(Nc1cc(F)cc(F)c1)N1CCC2(CC1)CN(c1ccc(F)c(Cl)c1)C2c1ccccn1 (stereo in doubt; 38b)
pIC50 [1]: 6.54
fraction unbound [2]: 0.001

O=C(Nc1cc(F)cc(F)c1)N1CCC2(CC1)CN(c1ccc(F)c(Cl)c1)C2c1ccccn1 (stereo in doubt; 38a)
pIC50 [1]: 7.22
PPB (Plasma): 99.9%
pIC50 [3]: 7.39

O=C1N(c2ccc(F)c(Cl)c2)C(c2ccccn2)C12CCN(c1nc3cc(F)c(Cl)cc3[nH]1)CC2 (configuration not stated)
pIC50 [1]: 7.22
inhibition [4]: 8.6%
fraction unbound [2]: 0.002
pIC50 [3]: 7.08

O=C(Nc1cccc(C(F)(F)F)c1)N1CCC2(CC1)C(=O)N(c1ccc(F)c(F)c1)C2c1ccccn1 (stereo in doubt; 41a)
inhibition (Rattus norvegicus [13]): inactive

O=C1N(c2cccc(Cl)c2)C(c2ccccn2)C12CCN(c1nc3cc(F)c(C(F)(F)F)cc3[nH]1)CC2 (configuration not stated)
pIC50 [1]: 7.36
inhibition [4]: 37.9%
pIC50 [3]: 7.20

O=C1N(c2ccc(F)c(Cl)c2)C(c2ccccn2)C12CCN(c1nc3cc(F)c(C(F)(F)F)cc3[nH]1)CC2 (stereo in doubt; 52b) [listing 1 of 2 here]
pIC50 [1]: 7.51
pIC50 [3]: 6.97

O=C(Nc1cccc(C(F)(F)F)c1)N1CCC2(CC1)C(=O)N(c1ccc(F)c(F)c1)C2c1ccccn1 (stereo in doubt; 411b)
pIC50 [1]: 6.75
fraction unbound [2]: 0.005
pIC50 [3]: 6.55
concentration (Rattus norvegicus [14]): 2.1 µM

N#Cc1cccc(NC(=O)N2CCC3(CC2)C(=O)N(c2cccc(Cl)c2)C3c2ccccn2)c1 (stereo in doubt; 43a)
pIC50 [1]: 7.24
PPB (Plasma): 99.2%
fraction unbound (Homo sapiens): 0.013

CC[C@H](C)[C@H](NC(=O)N1CCC2(CC1)C(=O)N(c1cccc(F)c1)C2c1ccc(Cl)cc1)C(=O)OC (stereo in doubt; 23a)
pIC50 [1]: 7.35
pIC50 [3]: 6.96

O=C1N(c2ccc(F)c(Cl)c2)C(c2ccccn2)C12CCN(c1nc3ccc(Cl)cc3[nH]1)CC2 (configuration not stated)
pIC50 [1]: 7.11
AUC [15]: 41.2 µM·h
inhibition [4]: 86.2%
pIC50 [3]: 7.15

C[C@H](NC(=O)N1CCC2(CC1)C(=O)N(c1cccc(F)c1)C2c1ccc(Cl)cc1)c1ccc(F)cc1 (some centres not stated)
inhibition [4]: 2.4%
fraction unbound [2]: 0.001

O=C1N(c2ccc(F)c(Cl)c2)C(c2ccccn2)C12CCN(c1nc3cc(F)c(C(F)(F)F)cc3[nH]1)CC2 (stereo in doubt; 52a) [listing 2 of 2 here]
pIC50 [1]: 7.54
AUC [15]: 0.814 µM·h
concentration (Rattus norvegicus [6]): 3.4 µM

CC(C)N1CC2(CCN(C(=O)Nc3cc(F)cc(F)c3)CC2)C1c1ccc(F)cc1 (racemic)
pIC50 [1]: 6.76
inhibition [4]: 46.5%
pIC50 [3]: 6.00

CC(C)N1CC2(CCN(C(=O)Nc3cc(F)cc(F)c3)CC2)C1c1ccc(Cl)cc1 (configuration not stated)
pIC50 [1]: 6.86
inhibition [4]: 19.1%
pIC50 (Cytochrome P450 3A4): < 4.52
INH (Cytochrome P450 2D6 [7]): 0.9 µM
pIC50 (Cytochrome P450 2C9 [8]): < 4.52
INH (Cytochrome P450 2D6 [9]): 3.6 µM
pIC50 (Cytochrome P450 2C9 [10]): < 4.52
Papp [11]: > 7.34 ×10⁻⁶ cm/s
pIC50 [3]: 6.48

CC[C@H](C)[C@H](NC(=O)N1CCC2(CC1)C(=O)N(c1cccc(F)c1)C2c1ccc(Cl)cc1)C(=O)OC#N (some centres not stated)
pIC50 [1]: 7.46
pIC50 [3]: 4.77

CC[C@H](C)[C@H](NC(=O)N1CCC2(CC1)CN(C1CC1)C2c1ccc(Cl)cc1)C(=O)OC (mixture of isomers)
pIC50 [1]: 6.49
pIC50 [3]: 6.15

O=C(Nc1cc(F)cc(F)c1)N1CCC2(CC1)C(=O)N(c1cccc(Cl)c1)C2c1ccccn1 (stereo in doubt; 44a)
pIC50 [1]: 7.74
PPB (Plasma): 98.9%
pIC50 [3]: 5.46
fraction unbound (Homo sapiens): 0.003

CC(C)N1CC2(CCN(C(=O)Nc3ccc(F)c(F)c3)CC2)C1c1ccc(Cl)cc1 (configuration not stated)
pIC50 [1]: 6.76
inhibition [4]: 64%
pIC50 (Cytochrome P450 3A4): < 4.52
INH (Cytochrome P450 2D6 [7]): 0.9 µM
pIC50 (Cytochrome P450 2C9 [8]): < 4.52
INH (Cytochrome P450 2D6 [9]): 8.1 µM
pIC50 (Cytochrome P450 2C9 [10]): < 4.52
Papp [11]: 18.7 ×10⁻⁶ cm/s
pIC50 [3]: 6.47

N#Cc1cccc(NC(=O)N2CCC3(CC2)C(=O)N(c2cccc(Cl)c2)C3c2ccccn2)c1 (stereo in doubt; 43b) [listing 1 of 2 here]
inhibition [4]: 25%
inhibition (Rattus norvegicus [13]): inactive

CN1C(=O)C2(CCN(C(=O)Nc3cc(F)cc(F)c3)CC2)C1c1ccc(Cl)cc1 (racemic)
pIC50 [1]: 6.04
inhibition [4]: 20.7%
fraction unbound [2]: 0.034

CN1CC2(CCN(C(=O)Nc3cc(F)cc(F)c3)CC2)C1c1ccc(F)cc1 (racemic)
pIC50 [1]: 6.39
inhibition [4]: 21.8%
fraction unbound [2]: 0.05

O=C(Nc1cc(F)cc(F)c1)N1CCC2(CC1)C(=O)N(c1cccc(Cl)c1)C2c1ccccn1 (stereo in doubt; 44b) [listing 2 of 2 here]
inhibition [4]: 36%
inhibition (Rattus norvegicus [13]): inactive
inhibition (Rattus norvegicus [16]): inactive

N#Cc1cccc(NC(=O)N2CCC3(CC2)C(=O)N(c2cccc(Cl)c2)C3c2ccccn2)c1 (stereo in doubt; 43b) [listing 2 of 2 here]
pIC50 [1]: 6.07
fraction unbound [2]: 0.012

O=C(Nc1ccc(F)c(F)c1)N1CCC2(CC1)C(=O)N(c1cccc(Cl)c1)C2c1ccccn1 (stereo in doubt; 42a) [listing 1 of 2 here]
inhibition [4]: 82.7%
inhibition (Rattus norvegicus [13]): inactive

O=C(Nc1cc(F)cc(F)c1)N1CCC2(CC1)CN(C1CC1)C2c1ccc(Cl)cc1 (racemic)
pIC50 [1]: 6.40
fraction unbound [2]: 0.002

O=C1N(c2ccc(F)c(Cl)c2)C(c2ccccn2)C12CCN(c1nc3cc(F)c(C(F)(F)F)cc3[nH]1)CC2 (stereo in doubt; 52b) [listing 2 of 2 here]
inhibition [4]: 59.8%
inhibition (Rattus norvegicus [5]): inactive

O=C(Nc1ccc(F)c(F)c1)N1CCC2(CC1)C(=O)N(c1cccc(Cl)c1)C2c1ccccn1 (stereo in doubt; 42a) [listing 2 of 2 here]
PPB (Plasma): 98.8%
fraction unbound (Homo sapiens): 0.001

CC[C@H](C)[C@H](NC(=O)N1CCC2(CC1)CN(C(C)C)C2c1ccc(Cl)cc1)C(=O)OC (stereo in doubt; 2a)
pIC50 [1]: 6.94
pIC50 [3]: 6.91

O=C(Nc1cc(F)cc(F)c1)N1CCC2(CC1)C(=O)N(c1ccc(F)c(Cl)c1)C2c1ccccn1 (stereo in doubt; 39a) [listing 2 of 2 here]
inhibition (Rattus norvegicus [17]): inactive

O=C(Nc1ccc(F)c(F)c1)N1CCC2(CC1)C(=O)N(c1cccc(Cl)c1)C2c1cccc[n+]1[O-] (stereo in doubt; form 1)
pIC50 [1]: 6.16
fraction unbound [2]: 0.066

O=C(Nc1ccc(F)c(F)c1)N1CCC2(CC1)C(=O)N(c1cccc(Cl)c1)C2c1ccccn1 (stereo in doubt; 42b)
pIC50 [1]: 6.19
PPB (Plasma): 99.9%
